Measured values taken from patent US9938238B2, “Anti-auxin compounds” (priority 2015, dated 2018).

Experiments:
Format in all cases: in vivo, Arabidopsis
[1] = system: ETR2, AtEBP, ACO2 expression; test: Northern analysis of ethylene responsive gene expression in seedlings; settings: Col-0 wt, hydroponic, dark 4 d
Experimental: (§1) Total RNA was extracted from leaf tissue using the RNeasy Plant Mini Kit (Qiagen, Valencia, Calif.). 10 μg of total RNA was separated by electrophoresis in a 1% (w/v) denaturing agarose gel, after which the RNA was blotted to Zeta-Probe GT Blotting Membrane (Bio-Rad, Hercules, Calif.). ^32P-labelled probes were generated using the RadPrime DNA labeling system (Invitrogen).
Manifestation of ethylene response is dependent on transcriptional induction of ethylene-regulated genes (Alonso et al., 2003; Chao et al., 1997; Solano et al., 1998). This relies on two primary transcription factors, EIN3 and EIL1, with mutational loss of both causing nearly complete ethylene insensitivity. It could be predicted that since PA treatment limits ethylene response it would also reduce or prevent ethylene inducible gene expression similar to the ethylene insensitive ein3-1; eil1-1 double mutant. To test this, Col-0 wt seedlings were treated with 5 μM AgNO3 or increasing concentrations of ethylene in the absence or presence of 25 μM PA, which is also a concentration that results in blockage of ethylene response. […] The latter two genes are not properly expressed in a group of enhanced ethylene response Arabidopsis mutants, with these argued to be members of a subset of ethylene regulated genes whose products are required for controlling the magnitude of ethylene response (Christians and Larsen, 2007; Christians et al., 2008; Deslauriers and Larsen, 2010; Robles et al., 2007).
In contrast to PA treatment, auxin has an antagonistic relationship regarding induction of this same subset of genes. Col-0 wt seedlings were grown hydroponically in the dark for 4 d in the presence of 5 μM AgNO3, 1 μM ACC or 10 μM ACC in the absence or presence of 10 μM 1-naphthaleneacetic acid (NAA) after which tissue was collected for RNA isolation and Northern analysis.

[2] = system: chiB and PDF1.2 expression; test: Expression of ethylene regulated defense genes in leaves; settings: 24 h
Experimental: as §1
For this analysis, Arabidopsis plants were grown hydroponically for 13 d after which they were treated with or without 10 μM ACC in the absence or presence of 25 μM PA, with all samples exposed to 10 μM+/−JA for the 24 h treatment period. […] Auxin functions in a synergistic manner with ethylene and JA to control expression of PDF1.2, with addition of auxin resulting in its hyperinduction (Robles et al., 2012).

Col-0 wt seedlings = test: Blockage of auxin dependent inhibition of root growth; settings: for root length, auxin alone: light, 7 d, 150 nM NAA or 300 nM IAA versus untreated roots
Experimental: For screening for chemicals that reduce ethylene response, Arabidopsis ctr1-3 seeds were planted on a microtiter plate containing PNS media in the presence of individual chemicals (50 μM concentration of each) from the Microsource Spectrum Collection. Seedlings were grown in the dark for 4 d after which they were scored for manifestation of the ethylene responsive triple response. For all other growth experiments, seedlings were planted on PNS media supplemented with the relevant chemical (Deslauriers and Larsen, 2010). For conditions requiring pamoic acid, media was supplemented with Pamoic acid disodium salt (Sigma Life Science, St. Louis, Mo.). Measurement of ethylene production was conducted as previously described (Deslauriers and Larsen, 2010). […]

DR5::GUS = test: GUS analysis of auxin responsive DR5::GUS reporter line; settings: for GUS activity in root tip and mature region of the root, auxin alone: 100 nM NAA or 750 nM IAA
Experimental: GUS analysis of DR5::GUS lines was performed as previously described (Ni et al., 2001).
Auxin responsiveness has also been assessed using the Arabidopsis DR5::GUS transgenic line in which several auxin response elements are fused upstream of the GUS reporter gene (Ni et al., 2001). Normally, treatment of DR5::GUS lines with exogenous auxin leads to increased GUS levels, which can be visualized through accumulation of blue color upon adding X-Gluc.

ctr1-3 seedlings = test: Seedling triple response of constitutive ethylene response mutant ctr1-3 (library screen and follow-up); settings: etiolated ctr1-3 in air, 4 d, 50 μM of each chemical
Experimental: For screening for chemicals that reduce ethylene response, Arabidopsis ctr1-3 seeds were planted on a microtiter plate containing PNS media in the presence of individual chemicals (50 μM concentration of each) from the Microsource Spectrum Collection. Seedlings were grown in the dark for 4 d after which they were scored for manifestation of the ethylene responsive triple response. For all other growth experiments, seedlings were planted on PNS media supplemented with the relevant chemical (Deslauriers and Larsen, 2010). For conditions requiring pamoic acid, media was supplemented with Pamoic acid disodium salt (Sigma Life Science, St. Louis, Mo.). Measurement of ethylene production was conducted as previously described (Deslauriers and Larsen, 2010).
A chemical library screen was performed in which etiolated seedlings of the constitutive ethylene response mutant, ctr1-3, were grown in air for 4 d in the presence of chemicals from the Microsource Spectrum Collection, a bioactive and natural compound library consisting of 2000 different compounds. ctr1-3 seedlings were scored for presentation of the ethylene regulated seedling triple response, consisting of severe hypocotyl and root shortening and exaggerated apical hook formation.

NC1(C(=O)O)CC1 [ACC, 1-aminocyclopropane-1-carboxylic acid]
induction of ACO2 and AtEBP ([1]; 1 μM or 10 μM ACC without NAA): normal ethylene responsive induction | chiB and PDF1.2 expression ([2]; plants grown 13 d hydroponically, 10 μM ACC, 10 μM JA): increased expression

O=C(O)Cc1c[nH]c2ccccc12 [IAA, indole-3-acetic acid]
root length, IAA alone (Col-0 wt seedlings; 5 days, 300 nM IAA in the absence of Tolmetin (FIG. 6)): severely inhibitory to roots | root length, auxin alone (Col-0 wt seedlings): severe root growth inhibition | GUS activity in root tip and mature region of the root, auxin alone (DR5::GUS): increased GUS activity | lateral root initiation, auxin alone (DR5::GUS; 750 nM IAA (FIG. 8)): promotes initiation of lateral roots

O=C(O)Cc1cccc2ccccc12 [NAA, 1-naphthaleneacetic acid]
root length, auxin alone (Col-0 wt seedlings): severe root growth inhibition | GUS activity in root tip and mature region of the root, auxin alone (DR5::GUS): increased GUS activity | induction of ACO2 and AtEBP ([1]; 1 μM or 10 μM ACC plus 10 μM NAA): nearly eliminated induction | ETR2 expression ([1]; ACC treatments plus 10 μM NAA): no obvious effect on ETR2 expression | chiB and PDF1.2 levels ([2]; 10 μM ACC supplemented with 250 nM NAA): far greater than what was observed following treatment with ACC alone

CN1CCCN=C1/C=C/c1cccs1 [Pyrantel pamoate]
apical hook formation in chemical library screen (ctr1-3 seedlings): blocked apical hook formation | root length in chemical library screen (ctr1-3 seedlings): measurably longer roots
